Measurements: ChEMBL document CHEMBL6083220, “Chemically induced degradation of PRC2 complex by EZH2-Targeted PROTACs via a Ubiquitin-Proteasome pathway” (Bioorg Med Chem Lett, 2024)
pIC50: −log10 of the molar value. Active and inactive are the calls of the source. The calls are words filed in the database; no cut-off is given here.

Experiments:
[1] = Antiproliferative activity against human MINO cells by MTT assay; format: functional, cell-based
[2] = test system: OCI-Ly7; test: Antiproliferative activity against human OCILY7 cells by MTT assay; format: functional, cell-based
[3] = test system: MINO; test: Downregulation of EZH2 protein expression in human MINO cells at 5 uM incubated for 24 hrs by Western blotting assay; format: functional, cell-based
[4] = test system: MINO; test: Downregulation of SUZ12 protein expression in human MINO cells at 5 uM incubated for 24 hrs by Western blotting assay; format: functional, cell-based
[5] = test system: MINO; test: Downregulation of EED protein expression in human MINO cells at 5 uM incubated for 24 hrs by Western blotting assay; format: functional, cell-based
[6] = test system: MINO; test: Downregulation of RbAp48 protein expression in human MINO cells at 5 uM incubated for 24 hrs by Western blotting assay; format: functional, cell-based
[7] = test system: MINO; test: Downregulation of H3k27me3 protein expression in human MINO cells at 5 uM incubated for 24 hrs by Western blotting assay; format: functional, cell-based
[8] = Induction of cell cycle arrest in human MINO cells assessed as G0/G1 phase cells at 5 uM incubated for 24 hrs by propidium iodide staining based flow cytometry assay (reference value: 67.56%); format: functional
[9] = Induction of cell cycle arrest in human MINO cells assessed as G2/M phase cells at 5 uM incubated for 24 hrs by propidium iodide staining based flow cytometry assay (reference value: 7.26%); format: functional
[10] = Induction of cell cycle arrest in human MINO cells assessed as S phase cells at 5 uM incubated for 24 hrs by propidium iodide staining based flow cytometry assay (reference value: 25.19%); format: functional
[11] = Induction of apoptosis in human MINO cells assessed as viable cells at 5 uM incubated for 24 hrs by Annexin V-FITC/PI staining based flow cytometry assay (reference value: 89.93%); format: functional; conditions: read-out: Activity
[12] = Induction of apoptosis in human MINO cells assessed as early apoptotic cells at 5 uM incubated for 24 hrs by Annexin V-FITC/PI staining based flow cytometry assay (reference value: 1.04%); format: functional
[13] = Induction of apoptosis in human MINO cells assessed as late apoptotic cells at 5 uM incubated for 24 hrs by Annexin V-FITC/PI staining based flow cytometry assay (reference value: 8.29%); format: functional
[14] = Induction of apoptosis in human MINO cells assessed as necrotic cells at 5 uM incubated for 24 hrs by Annexin V-FITC/PI staining based flow cytometry assay (reference value: 0.74%); format: functional
[15] = test system: MINO; test: Induction of mitochondrial apoptosis pathway in human MINO cells assessed as upregulation of cytochrome C expression at 5 uM incubated for 24 hrs by Western blotting assay; format: functional, cell-based
[16] = test system: MINO; test: Induction of mitochondrial apoptosis pathway in human MINO cells assessed as upregulation of bax protein expression at 5 uM incubated for 24 hrs by Western blotting assay; format: functional, cell-based
[17] = test system: MINO; test: Induction of mitochondrial apoptosis pathway in human MINO cells assessed as upregulation of cleaved PARP expression at 5 uM incubated for 24 hrs by Western blotting assay; format: functional, cell-based
[18] = test system: MINO; test: Induction of mitochondrial apoptosis pathway in human MINO cells assessed as downregulation of bcl-2 expression at 5 uM incubated for 24 hrs by Western blotting assay; format: functional, cell-based
[19] = test system: MINO; test: Induction of mitochondrial apoptosis pathway in human MINO cells assessed as downregulation of procaspase-3 expression at 5 uM incubated for 24 hrs by Western blotting assay; format: functional, cell-based
[20] = test system: MINO; test: Induction of mitochondrial apoptosis pathway in human MINO cells assessed as downregulation of procaspase-9 expression at 5 uM incubated for 24 hrs by Western blotting assay; format: functional, cell-based

SMILES | pIC50 [1] | pIC50 [2] | further results
CCN(c1cc(-c2ccc(CN3CCN(C(=O)CCC4CCC(CNc5cccc6c5C(=O)N(C5CCC(=O)NC5=O)C6=O)CC4)CC3)cc2)cc(C(=O)NCc2c(C)cc(C)[nH]c2=O)c1C)C1CCOCC1 (configuration not stated) | 7.41 | 7.43 | 
CCN(c1cc(-c2ccc(CN3CCN(CCCN4CC(CNc5cccc6c5C(=O)N(C5CCC(=O)NC5=O)C6=O)C4)CC3)cc2)cc(C(=O)NCc2c(C)cc(C)[nH]c2=O)c1C)C1CCOCC1 (configuration not stated) | 7.16 | 7.66 | 
CCN(c1cc(-c2ccc(CN3CCN(C(=O)CN4CCN(c5cccc6c5C(=O)N(C5CCC(=O)NC5=O)C6=O)CC4)CC3)cc2)cc(C(=O)NCc2c(C)cc(C)[nH]c2=O)c1C)C1CCOCC1 (configuration not stated) | 6.96 | 5.63 | 
CCN(c1cc(-c2ccc(CN3CCOCC3)cc2)cc(C(=O)NCc2c(C)cc(C)[nH]c2=O)c1C)C1CCOCC1 [TAZEMETOSTAT] | 5.97 | 5.92 | Activity [3]: inactive; Activity [4]: inactive; Activity [5]: inactive; Activity [6]: inactive; Activity [7]: Active; Limited Inhibition Observed; Activity [8]: 73.92%; Activity [9]: 7.74%; Activity [10]: 18.34%; viability at 5 µM [11]: 57.2%; Activity [12]: 0.38%; Activity [13]: 32.16%; Activity [14]: 10.27%; Activity [15]: Active; Activity Weaker Than Zj-20; Activity [16]: Active; Activity Weaker Than Zj-20; Activity [17]: Active; Activity Weaker Than Zj-20; Activity [18]: Active; Activity Weaker Than Zj-20; Activity [19]: Active; Activity Weaker Than Zj-20; Activity [20]: Active; Activity Weaker Than Zj-20
CCN(c1cc(-c2ccc(CN3CCN(C(=O)/C=C/C4CC(CNc5cccc6c5C(=O)N(C5CCC(=O)NC5=O)C6=O)C4)CC3)cc2)cc(C(=O)NCc2c(C)cc(C)[nH]c2=O)c1C)C1CCOCC1 (configuration not stated) | 6.72 | 8.22 | 
CCN(c1cc(-c2ccc(CN3CCN(C(=O)C4CCC(CNc5cccc6c5C(=O)N(C5CCC(=O)NC5=O)C6=O)CC4)CC3)cc2)cc(C(=O)NCc2c(C)cc(C)[nH]c2=O)c1C)C1CCOCC1 (configuration not stated) | 7.47 | 7.74 | 
CCN(c1cc(-c2ccc(CN3CCN(C(=O)CCN4CC(CNc5cccc6c5C(=O)N(C5CCC(=O)NC5=O)C6=O)C4)CC3)cc2)cc(C(=O)NCc2c(C)cc(C)[nH]c2=O)c1C)C1CCOCC1 (configuration not stated) | 6.29 | 6.77 | 
CCN(c1cc(-c2ccc(CN3CCN(C(=O)/C=C/C4CCC(CNc5cccc6c5C(=O)N(C5CCC(=O)NC5=O)C6=O)C4)CC3)cc2)cc(C(=O)NCc2c(C)cc(C)[nH]c2=O)c1C)C1CCOCC1 (configuration not stated) | 7.24 | 8.15 | 
CCN(c1cc(-c2ccc(CN3CCN(C(=O)Cc4ccc(CNc5cccc6c5C(=O)N(C5CCC(=O)NC5=O)C6=O)cc4)CC3)cc2)cc(C(=O)NCc2c(C)cc(C)[nH]c2=O)c1C)C1CCOCC1 (configuration not stated) | 5.99 | 6.06 | 
CCN(c1cc(-c2ccc(CN3CCN(C(=O)C4CCN(C5CCN(c6cccc7c6C(=O)N(C6CCC(=O)NC6=O)C7=O)CC5)CC4)CC3)cc2)cc(C(=O)NCc2c(C)cc(C)[nH]c2=O)c1C)C1CCOCC1 (configuration not stated) | 6.01 | 5.39 | 
CCN(c1cc(-c2ccc(CN3CCN(C(=O)CN4CCCC(CNc5cccc6c5C(=O)N(C5CCC(=O)NC5=O)C6=O)C4)CC3)cc2)cc(C(=O)NCc2c(C)cc(C)[nH]c2=O)c1C)C1CCOCC1 (configuration not stated) | 6.35 | 6.66 | 
CCN(c1cc(-c2ccc(CN3CCN(C(=O)CN4CCC(Nc5cccc6c5C(=O)N(C5CCC(=O)NC5=O)C6=O)CC4)CC3)cc2)cc(C(=O)NCc2c(C)cc(C)[nH]c2=O)c1C)C1CCOCC1 (configuration not stated) | 6.28 | 7.66 | 
CCN(c1cc(-c2ccc(CN3CCN(CCC4CCC(CNc5cccc6c5C(=O)N(C5CCC(=O)NC5=O)C6=O)CC4)CC3)cc2)cc(C(=O)NCc2c(C)cc(C)[nH]c2=O)c1C)C1CCOCC1 (configuration not stated) | 7.40 | 7.89 | 
CCN(c1cc(-c2ccc(CN3CCN(C(=O)CN4CCC(CNc5cccc6c5C(=O)N(C5CCC(=O)NC5=O)C6=O)C4)CC3)cc2)cc(C(=O)NCc2c(C)cc(C)[nH]c2=O)c1C)C1CCOCC1 (configuration not stated) | 5.49 | 5.67 | 
CCN(c1cc(-c2ccc(CN3CCN(C(=O)C=C4CCC(CNc5cccc6c5C(=O)N(C5CCC(=O)NC5=O)C6=O)CC4)CC3)cc2)cc(C(=O)NCc2c(C)cc(C)[nH]c2=O)c1C)C1CCOCC1 (configuration not stated) | 6.16 | 6.72 | 
CCN(c1cc(-c2ccc(CN3CCN(CC=C4CCC(CNc5cccc6c5C(=O)N(C5CCC(=O)NC5=O)C6=O)CC4)CC3)cc2)cc(C(=O)NCc2c(C)cc(C)[nH]c2=O)c1C)C1CCOCC1 (configuration not stated) | 6.60 | 8.40 | 
CCN(c1cc(-c2ccc(CN3CCN(C(=O)CN4CC(CNc5cccc6c5C(=O)N(C5CCC(=O)NC5=O)C6=O)C4)CC3)cc2)cc(C(=O)NCc2c(C)cc(C)[nH]c2=O)c1C)C1CCOCC1 (configuration not stated) | 6.02 | 5.71 | 
CCN(c1cc(-c2ccc(CN3CCN(C(=O)CCC4CCC(CNc5cccc6c5C(=O)N(C5CCC(=O)NC5=O)C6=O)C4)CC3)cc2)cc(C(=O)NCc2c(C)cc(C)[nH]c2=O)c1C)C1CCOCC1 (configuration not stated) | 7.52 | 7.70 | 
CCN(c1cc(-c2ccc(CN3CCN(C(=O)CN4CCC(Nc5cccc6c5C(=O)N(C5CCC(=O)NC5=O)C6=O)C4)CC3)cc2)cc(C(=O)NCc2c(C)cc(C)[nH]c2=O)c1C)C1CCOCC1 (configuration not stated) | 6.18 | 6.82 | 
CCN(c1cc(-c2ccc(CN3CCN(C(=O)/C=C/C4CCC(CNc5cccc6c5C(=O)N(C5CCC(=O)NC5=O)C6=O)CC4)CC3)cc2)cc(C(=O)NCc2c(C)cc(C)[nH]c2=O)c1C)C1CCOCC1 (configuration not stated) | 7.62 | 7.40 | 
CCN(c1cc(-c2ccc(CN3CCN(C(=O)CCC4CC(CNc5cccc6c5C(=O)N(C5CCC(=O)NC5=O)C6=O)C4)CC3)cc2)cc(C(=O)NCc2c(C)cc(C)[nH]c2=O)c1C)C1CCOCC1 (configuration not stated) | 7.32 | 8.00 | 
CCN(c1cc(-c2ccc(CN3CCN(C(=O)C4CCN(C5CN(c6cccc7c6C(=O)N(C6CCC(=O)NC6=O)C7=O)C5)CC4)CC3)cc2)cc(C(=O)NCc2c(C)cc(C)[nH]c2=O)c1C)C1CCOCC1 (configuration not stated) | 5.61 | 4.98 | 
